Results: US20250134861A1, “COMPOSITIONS COMPRISING 5-METHOXY-N,N-DIMETHYLTRYPTAMINE (5-MEO-DMT) FOR USE IN TREATING MENTAL DISORDERS” (GH RESEARCH IRELAND LIMITED, priority 2019, published 2025)

Experiments:
[1] = test system: patients with personality trait disturbance or anxiety; settings: LSD as an aid to psychotherapy; cited from earlier work
[2] = test system: patients suffering from terminal state of cancer; settings: LSD treatment; cited from earlier work
[3] = test system: patients with anxiety associated with life-threatening diseases; settings: 12 patients; two months follow-up; cited from earlier work
[4] = test system: patients with alcohol dependence; settings: therapy with LSD; cited from earlier work
[5] = oral; cited from earlier work
[6] = test system: patients in a treatment program of alcoholism; settings: LSD together with psychotherapy vs psychotherapy alone; cited from earlier work
[7] = Clinical trial of inhaled 5-MeO-DMT in healthy volunteers: 5-MeO-DMT and bufotenine plasma levels; format: in vivo, human; settings: all other samples (1 hour and 3 hours) after inhaled 5-MeO-DMT
Procedure: The trial consisted of two parts: Part A, where single doses of 5-MeO-DMT dosage amounts of 2 mg, 6 mg, 12 mg and 18 mg were administered; and Part B, where an initial 5-MeO-DMT dosage amount of 6 mg was administered, and then, unless the participant had already experienced a peak psychedelic experience based on the PPEQ or the supervising physician had decided that further dose increases were inappropriate based on observed side effects, further subsequent dosage amounts of 12 mg and 18 mg were administered with about 3 hours in between each administration. […] Pharmacokinetic analysis of 5-MeO-DMT and bufotenine plasma levels was performed at 1 hour and 3 hours after drug administration in Part A, and at 3 hours after drug administration in Part B.

[8] = biological target: 5-HT2A receptor (Homo sapiens, UniProt P28223); settings: compared with 5-MeO-DMT; cited from earlier work
5-HT2A receptor, sequence (P28223 whole entry): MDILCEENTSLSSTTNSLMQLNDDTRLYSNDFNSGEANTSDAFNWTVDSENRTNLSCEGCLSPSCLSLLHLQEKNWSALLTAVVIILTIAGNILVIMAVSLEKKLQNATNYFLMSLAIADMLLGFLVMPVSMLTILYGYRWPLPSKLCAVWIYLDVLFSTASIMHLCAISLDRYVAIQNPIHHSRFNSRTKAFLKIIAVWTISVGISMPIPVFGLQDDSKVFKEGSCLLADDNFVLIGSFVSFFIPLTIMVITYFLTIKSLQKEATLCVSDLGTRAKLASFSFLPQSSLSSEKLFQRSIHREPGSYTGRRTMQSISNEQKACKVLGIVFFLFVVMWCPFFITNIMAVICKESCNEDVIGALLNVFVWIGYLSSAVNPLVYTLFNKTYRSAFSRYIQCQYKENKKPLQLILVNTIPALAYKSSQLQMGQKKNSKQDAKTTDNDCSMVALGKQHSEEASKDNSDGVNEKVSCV

[9] = test system: patients with treatment-resistant depression; settings: in vivo; cited from earlier work

CCN(CC)C(=O)[C@@H]1C=C2c3cccc4[nH]cc(c34)C[C@H]2N(C)C1 [LSD, lysergic acid diethylamide]
Patients with outcome of "much improved" or "improved" [1]: over 90% | Fraction of patients who improved in varying degrees [2]: about two-thirds | Anxiety measures [3]: significant effects | Patients changed (stop drinking or are much improved) [4]: 50% | Duration of acute psychedelic effects [5]: several hours | Rates of abstinence or improvement [6]: higher rates of abstinence or improvement

CN(C)CCc1c[nH]c2ccc(O)cc12 [bufotenine]
Bufotenine (5-MeO-DMT metabolite) plasma levels [7]: undetectable | Affinity for the 5-HT2A receptor [8]: much higher affinity than 5-MeO-DMT itself

CN(C)CCc1c[nH]c2cccc(OP(=O)(O)O)c12 [psilocybin]
Frequently reported side effects [9]: anxiety, headache and nausea
